Columns and labels:
Carbonic anhydrase 14 = Carbonic anhydrase 14 (Homo sapiens, UniProt Q9ULX7); assay: Inhibition of human recombinant carbonic anhydrase 14 expressed in Escherichia coli BL21 (DE3) by stopped-flow CO2 hydration assay
Carbonic anhydrase 7 = Carbonic anhydrase 7 (Homo sapiens, UniProt P43166); assay: Inhibition of human recombinant carbonic anhydrase 7 expressed in Escherichia coli BL21 (DE3) by stopped-flow CO2 hydration assay
[1] = molecular target: Carbonic anhydrase 5A, mitochondrial (Homo sapiens, UniProt P35218); assay: Inhibition of human recombinant carbonic anhydrase 5A expressed in Escherichia coli BL21 (DE3) by stopped-flow CO2 hydration assay
Carbonic anhydrase 6 = Carbonic anhydrase 6 (Homo sapiens, UniProt P23280); assay: Inhibition of human recombinant carbonic anhydrase 6 expressed in Escherichia coli BL21 (DE3) by stopped-flow CO2 hydration assay
Carbonic anhydrase 4 = Carbonic anhydrase 4 (Homo sapiens, UniProt P22748); assay: Inhibition of human recombinant carbonic anhydrase 4 expressed in Escherichia coli BL21 (DE3) by stopped-flow CO2 hydration assay
Carbonic anhydrase 13 = Carbonic anhydrase 13 (Homo sapiens, UniProt Q8N1Q1); assay: Inhibition of human recombinant carbonic anhydrase 13 expressed in Escherichia coli BL21 (DE3) by stopped-flow CO2 hydration assay
Carbonic anhydrase 13, sequence (Q8N1Q1 whole entry): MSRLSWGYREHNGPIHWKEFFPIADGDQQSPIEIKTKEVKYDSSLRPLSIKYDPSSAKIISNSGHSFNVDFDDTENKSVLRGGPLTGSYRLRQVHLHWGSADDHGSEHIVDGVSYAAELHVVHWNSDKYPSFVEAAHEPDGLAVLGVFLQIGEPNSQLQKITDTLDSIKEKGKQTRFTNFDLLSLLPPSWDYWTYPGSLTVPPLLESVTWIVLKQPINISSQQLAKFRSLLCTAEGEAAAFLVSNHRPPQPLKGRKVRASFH

Carbonic anhydrase 7, sequence (P43166 whole entry): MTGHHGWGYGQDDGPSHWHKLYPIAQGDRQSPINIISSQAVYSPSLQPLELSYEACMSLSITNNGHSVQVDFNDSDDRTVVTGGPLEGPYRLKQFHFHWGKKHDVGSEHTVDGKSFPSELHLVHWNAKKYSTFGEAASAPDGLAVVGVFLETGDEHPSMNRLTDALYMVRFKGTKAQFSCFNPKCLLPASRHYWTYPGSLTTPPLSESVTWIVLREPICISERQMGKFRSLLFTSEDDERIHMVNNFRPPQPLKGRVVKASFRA
Carbonic anhydrase 5A, mitochondrial, sequence (P35218 whole entry): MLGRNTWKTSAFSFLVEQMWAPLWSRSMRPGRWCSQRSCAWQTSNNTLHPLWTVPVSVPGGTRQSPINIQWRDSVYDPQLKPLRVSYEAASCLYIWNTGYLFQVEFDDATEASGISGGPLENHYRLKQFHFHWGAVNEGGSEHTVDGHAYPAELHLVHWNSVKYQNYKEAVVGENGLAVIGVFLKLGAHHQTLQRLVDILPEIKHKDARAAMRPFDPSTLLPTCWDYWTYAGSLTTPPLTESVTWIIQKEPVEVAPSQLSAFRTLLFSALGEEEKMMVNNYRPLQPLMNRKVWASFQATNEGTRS
Carbonic anhydrase 4, sequence (P22748 whole entry): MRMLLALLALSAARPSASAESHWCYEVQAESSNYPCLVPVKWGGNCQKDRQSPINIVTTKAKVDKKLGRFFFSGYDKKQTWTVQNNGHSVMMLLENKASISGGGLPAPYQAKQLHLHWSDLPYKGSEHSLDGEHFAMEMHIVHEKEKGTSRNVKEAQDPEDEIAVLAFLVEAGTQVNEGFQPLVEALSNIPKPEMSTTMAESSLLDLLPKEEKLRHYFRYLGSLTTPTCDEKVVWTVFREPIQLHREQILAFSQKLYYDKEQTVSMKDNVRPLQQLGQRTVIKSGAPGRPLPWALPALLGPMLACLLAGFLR
Carbonic anhydrase 14, sequence (Q9ULX7 whole entry): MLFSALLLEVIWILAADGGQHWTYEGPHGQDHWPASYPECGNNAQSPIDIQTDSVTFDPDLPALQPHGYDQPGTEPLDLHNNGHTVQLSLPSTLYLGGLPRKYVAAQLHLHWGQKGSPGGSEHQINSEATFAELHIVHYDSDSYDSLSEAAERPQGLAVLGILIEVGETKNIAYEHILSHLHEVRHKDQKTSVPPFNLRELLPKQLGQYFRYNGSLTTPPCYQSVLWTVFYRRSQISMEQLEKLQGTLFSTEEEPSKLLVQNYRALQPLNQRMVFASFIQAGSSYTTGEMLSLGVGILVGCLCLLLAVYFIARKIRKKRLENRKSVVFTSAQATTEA
Carbonic anhydrase 6, sequence (P23280 whole entry): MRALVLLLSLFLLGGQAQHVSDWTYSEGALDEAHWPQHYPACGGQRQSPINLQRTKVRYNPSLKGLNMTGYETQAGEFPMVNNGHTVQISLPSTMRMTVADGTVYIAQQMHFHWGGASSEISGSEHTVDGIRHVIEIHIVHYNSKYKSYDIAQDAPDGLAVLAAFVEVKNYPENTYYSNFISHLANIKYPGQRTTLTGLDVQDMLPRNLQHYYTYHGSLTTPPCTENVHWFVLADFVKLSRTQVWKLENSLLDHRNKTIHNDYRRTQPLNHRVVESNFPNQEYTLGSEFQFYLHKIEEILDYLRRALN

Ki (Carbonic anhydrase 14): 379 nM | Ki (Carbonic anhydrase 7): 1.7 nM | Ki [1]: 154 nM | Ki (Carbonic anhydrase 6): 9680 nM | Ki (Carbonic anhydrase 4): 75.3 nM | Ki (Carbonic anhydrase 13): 10600 nM
SMILES: NS(=O)(=O)CCNC(=O)/C(Cc1ccc(O)c(Br)c1)=N/O
